The values below come from ChEMBL document CHEMBL1201862, “PubChem BioAssay data set” (2004).

Molecules are shown by their SMILES.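 Growth conditions: 96-well plates. Treatment: test compound, 48 hours, 5 concentrations. Analysis: linear interpolation between bracketing concentrations; unreached endpoints set to highest concentration. At the GI50, growth is halved.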 Activity calls are given as the source filed them. Cut-off read from the data, not from the text of the source: active = GI50 up to about 1.1 µM and inactive = higher.

Among the test systems are 786-0; A549; HOP-62; HT-29; IGROV-1; LOX IMVI; MDA-N; Malme-3M; NCI-H23; NCI-H460; NCI-H522; OVCAR-4; OVCAR-5; SK-OV-3; SN12C; SNB-75; SW-620; U-251; UACC-62.
What all share (assay): NCI anticancer screen, dose series, 48 h

Consider `Cn1c(=O)c2nc(CCS)[nH]c2n(C)c1=O`, for which the GI50 was 51.2 µM (inactive) in the test on 786-0; > 100 µM (inactive) with A549; 54.3 µM (inactive) in the test with HOP-62; > 100 µM (inactive) in the test with HT-29; > 100 µM (inactive) in the test on IGROV-1; > 100 µM (inactive) in the test with LOX IMVI. The GI50 in the test on MDA-N, with Malme-3M, with NCI-H23, in the test with NCI-H460, in the test with NCI-H522 and with OVCAR-4 was > 100 µM (inactive) each time. For the same compound, the GI50 was > 100 µM (inactive) with OVCAR-5; 68.1 µM (inactive) in the test on SK-OV-3; > 100 µM (inactive) in the test on SN12C; 18.3 µM (inactive) in the test with SNB-75; > 100 µM (inactive) with SW-620; > 100 µM (inactive) with U-251. Besides, in the test on UACC-62, the GI50 is > 100 µM (inactive).
With `C=CCN1C(=O)/C(=C/c2ccc(Cl)cc2)N=C1SC/C=C/C`, the GI50 in the test on 786-0 was 33 µM (inactive); with A549, 11.2 µM (inactive); with HOP-62 it was > 100 µM (inactive); with HT-29 it was 30.9 µM (inactive); with IGROV-1 it was 65.5 µM (inactive); in the test with LOX IMVI, 34 µM (inactive). Besides, the GI50 in the test with MDA-N was 25.3 µM (inactive); in the test on Malme-3M, 33.7 µM (inactive); in the test with NCI-H23, 32.1 µM (inactive); in the test on NCI-H460 it was 62.4 µM (inactive); in the test on NCI-H522, 28.4 µM (inactive); in the test with OVCAR-4 it was 29.2 µM (inactive). Besides, the GI50 in the test on OVCAR-5 is 37.8 µM (inactive); with SK-OV-3, > 100 µM (inactive); in the test on SN12C, 21.7 µM (inactive); with SNB-75 it was 75.7 µM (inactive); with SW-620, 31.8 µM (inactive); with U-251, 27.4 µM (inactive). Moreover, the GI50 with UACC-62 is 42.3 µM (inactive).
Turning to `CC(=O)NNc1nc(C)c(C(/C=C/c2ccccc2O)=N/NC(=O)c2ccncc2)s1`, the GI50 in the test on 786-0, in the test with A549, in the test on HOP-62, in the test with HT-29, in the test with IGROV-1 and in the test with LOX IMVI was > 100 µM (inactive) throughout. Further, the GI50 in the test with MDA-N, in the test on Malme-3M, in the test with NCI-H23, in the test on NCI-H460, in the test on NCI-H522 and in the test on OVCAR-4 was > 100 µM (inactive) throughout. Besides, the GI50 in the test with OVCAR-5, in the test on SK-OV-3, in the test with SN12C, in the test with SNB-75, in the test with SW-620 and in the test on U-251 was > 100 µM (inactive) throughout. Moreover, the GI50 in the test on UACC-62 is > 100 µM (inactive).
For the compound `CC(C)(C)C1=CC(=CC=C2C=CN(CCCCCCCCCCCO)C=C2)C=C(C(C)(C)C)C1=O`, the GI50 is 1.26 µM (inactive) with 786-0; 1.62 µM (inactive) in the test on A549; 1.74 µM (inactive) with HOP-62; 3.37 µM (inactive) in the test with HT-29; 0.815 µM (active) with IGROV-1; 0.735 µM (active) in the test with LOX IMVI. Further, the GI50 in the test with MDA-N is 1.87 µM (inactive); in the test on Malme-3M it was 1.46 µM (inactive); with NCI-H23 it was 2.03 µM (inactive); in the test on NCI-H460 it was 2.01 µM (inactive); with NCI-H522, 0.453 µM (active); with OVCAR-4, 1.76 µM (inactive). For the same compound, the GI50 with OVCAR-5 is 2.48 µM (inactive); in the test with SK-OV-3, 2.16 µM (inactive); in the test with SN12C, 1.25 µM (inactive); with SNB-75, 1.82 µM (inactive); with SW-620, 2.19 µM (inactive); in the test with U-251, 0.782 µM (active). For the same compound, in the test with UACC-62, the GI50 was 1.5 µM (inactive).
As to `COC(=O)C(=O)C(C(=O)C(=O)Nc1nc2ccc(C)cc2s1)c1nc2ccc([N+](=O)[O-])cc2nc1O` (stereo not drawn), the GI50 in the test on 786-0 is > 100 µM (inactive); in the test on A549, > 100 µM (inactive); in the test on HOP-62, > 100 µM (inactive); in the test on HT-29, > 100 µM (inactive); in the test on IGROV-1 it was 47.9 µM (inactive); with LOX IMVI, > 100 µM (inactive). The GI50 is > 100 µM (inactive) with MDA-N; > 100 µM (inactive) in the test with Malme-3M; > 100 µM (inactive) in the test with NCI-H23; > 100 µM (inactive) with NCI-H460; > 100 µM (inactive) with NCI-H522; > 10 µM (inactive) with OVCAR-4. Also, the GI50 with OVCAR-5, in the test on SK-OV-3, with SN12C, in the test on SNB-75, in the test with SW-620 and in the test with U-251 was > 100 µM (inactive) each time. The GI50 in the test with UACC-62 was > 100 µM (inactive).
`C[n+]1cn(C2=C([N-]S(=O)(=O)c3ccccc3)C(=O)c3ccccc3C2=O)c2ccccc21`: the GI50 was 48.4 µM (inactive) in the test with 786-0; 85.9 µM (inactive) in the test with A549; 47.9 µM (inactive) with HOP-62; 6.67 µM (inactive) in the test with HT-29; 17.3 µM (inactive) with IGROV-1; 12.7 µM (inactive) in the test on LOX IMVI. The GI50 in the test with MDA-N is 12.8 µM (inactive); in the test with Malme-3M it was 1.55 µM (inactive); in the test on NCI-H23, 16 µM (inactive); in the test with NCI-H460 it was 16.8 µM (inactive); with NCI-H522, 11.9 µM (inactive); in the test with OVCAR-4, 1.59 µM (inactive). Moreover, the GI50 with OVCAR-5 is > 100 µM (inactive); in the test with SK-OV-3, > 100 µM (inactive); in the test on SN12C, 31.3 µM (inactive); in the test on SNB-75, 24.3 µM (inactive); in the test with SW-620 it was 28.6 µM (inactive); with U-251, 19.3 µM (inactive). The GI50 in the test on UACC-62 was 22.5 µM (inactive).
In the case of `CCC(CCCC[C@H]1CC[C@@H]2CC(=O)C[C@H]12)OC` (stereo partly drawn), the GI50 in the test on 786-0, in the test on A549, in the test on HOP-62, with HT-29, with IGROV-1 and with LOX IMVI was > 100 µM (inactive) throughout. The GI50 is > 100 µM (inactive) in the test on MDA-N; > 100 µM (inactive) in the test with Malme-3M; 35.2 µM (inactive) in the test on NCI-H23; > 100 µM (inactive) in the test on NCI-H460; > 100 µM (inactive) with NCI-H522; > 100 µM (inactive) with OVCAR-4. Further, the GI50 is > 100 µM (inactive) with OVCAR-5; > 100 µM (inactive) with SK-OV-3; > 100 µM (inactive) in the test with SN12C; 59 µM (inactive) with SNB-75; > 100 µM (inactive) in the test on SW-620; > 100 µM (inactive) with U-251. The GI50 in the test with UACC-62 was 76 µM (inactive).
